Source: patent publication US8293729B2 (Boehringer Ingelheim International GmbH, priority 2009, dated 2012)

Molecular target: T1, human GPR119 receptor (Homo sapiens, UniProt Q8TDV5, S329A/T327A)
T1 construct: N-terminal leader […]; expressed in transfected cells
T1 sequence (Q8TDV5 with tags, fused parts or gaps T327A/S329A): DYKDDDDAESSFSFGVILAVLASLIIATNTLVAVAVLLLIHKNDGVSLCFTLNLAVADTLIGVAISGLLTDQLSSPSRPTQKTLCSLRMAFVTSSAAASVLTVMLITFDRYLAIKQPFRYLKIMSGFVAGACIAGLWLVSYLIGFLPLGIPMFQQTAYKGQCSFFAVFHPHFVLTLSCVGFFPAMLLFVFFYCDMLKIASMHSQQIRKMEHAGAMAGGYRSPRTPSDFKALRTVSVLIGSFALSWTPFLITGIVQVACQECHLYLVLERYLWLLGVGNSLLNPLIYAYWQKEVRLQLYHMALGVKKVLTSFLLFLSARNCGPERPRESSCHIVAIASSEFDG
Assay: cAMP assay (LANCE cAMP-384) in HEK293 cells stably expressing mutant human GPR119 receptor
Assay type: cell-based
Details: HEK293, 20 min; at 10 μM; printed in EC50 column of the 36th table; read-out: stimulation in % at 10 μM
In short: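 Agonist EC50 came from nonlinear regression over 12 concentrations (30 μM–100 pM), with % stimulation at 10 μM where no EC50 was obtained. Cells: stable HEK293 with mutant human GPR119 (T327A/S329A), 20 min compound at 37° C; cAMP read by LANCE kit with standard curve.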

Question: How did the activation at 10 µM turn out when `CC(C)CN1CCC(ON=C2CCN(c3ccc(S(C)(=O)=O)cc3F)CC2)CC1` [Example 66-21] was run?
Answer: 64%

Same assay, conditions: HEK293, 20 min; single concentration 10 μM; given where no EC50 value could be determined; read-out: % stimulation at 10 μM

Question: Which activation at 10 µM does the source give for `CC(C)OC(=O)N1CCC(ON=C2CCN(c3cc(F)c(C(=N)N)cc3F)CC2)CC1` [Example 23-1, 4-[1-(4-Carbamimidoyl-2,5-difluoro-phenyl)-piperidin-4-ylideneaminooxy]-piperidine-1-carboxylic acid isopropyl ester] here?
Answer: 3%

Question: `COc1ncc(-c2cc(F)c(N3CCC(=NOC4CCN(C(=O)OC(C)C)CC4)CC3)cc2F)c(OC)n1` [Example 27-31] was tested. Which activation at 10 µM did it give?
Answer: 70%

Same assay, conditions: cAMP accumulation, HEK293 cells stably expressing mutant human GPR119; read-out: EC50

Question: `CC(=O)N(C)Cc1cc(F)c(N2CCC(=NOC3CCN(C(=O)OC(C)C)CC3)CC2)cc1F` [Example 18-1, 4-(1-{4-[(Acetyl-methyl-amino)-methyl]-2,5-difluoro-phenyl}-piperidin-4-ylideneaminooxy)-piperidine-1-carboxylic acid isopropyl ester] was tested. Which EC50 did it give?
Answer: 127 nM

Question: With `CC(C)OC(=O)N1CCC(ON=C2CCN(c3cc(F)c(-c4nccs4)cc3F)CC2)CC1` [Example 27-18] as the molecule, how does the EC50 read?
Answer: 137 nM

Question: Which EC50 does the source give for `CC(C)OC(=O)N1CCC(ON=C2CCN(c3cc(F)c(Cn4cccc5ncnc4-5)cc3F)CC2)CC1` [Example 14-7] here?
Answer: 713 nM

Question: With `CC(C)OC(=O)N1CCC(ON=C2CCN(c3c(F)c(F)c(C(N)=O)c(F)c3F)CC2)CC1` [Example 2-57] as the molecule, how does the EC50 read?
Answer: 56 nM

Question: With `CC(C)OC(=O)N1CCC(ON=C2CCN(c3cc(F)c(S(=O)(=O)C4CC4)cc3F)CC2)CC1` [Example 47-1, 4-[1-(4-Cyclopropanesulfonyl-2,5-difluoro-phenyl)-piperidin-4-ylideneaminooxy]-piperidine-1-carboxylic acid isopropyl ester] as the molecule, how does the EC50 read?
Answer: 43 nM

Question: How did the EC50 turn out when `CC(C)OC(=O)N1CCC(ON=C2CCN(c3cc(F)c(CN4CCN(C(=O)OC(C)(C)C)CC4=O)cc3F)CC2)CC1` [Example 15-3] was run?
Answer: 408 nM

Question: Which EC50 does the source give for `CC(C)OC(=O)N1CCC(ON=C2CCN(c3cc(F)c(Cn4cnnc4)cc3F)CC2)CC1` [Example 14-17] here?
Answer: 28 nM

Question: Which EC50 does the source give for `Cc1cc(C(=O)O)nc(N2CCC(=NOC3CCN(C(=O)OC(C)C)CC3)CC2)n1` [Example 2-65] here?
Answer: > 10000 nM

Question: For `CC(C)OC(=O)N1CCC(ON=C2CCN(c3cc(F)c(CSCC(=O)O)cc3F)CC2)CC1` [Example 13-2], which EC50 is on record?
Answer: 2410 nM

Question: With `CCc1cnc(-c2cc(F)c(N3CCC(=NOC4CCN(C(=O)OC(C)C)CC4)CC3)cc2F)nc1` [Example 27-21] as the molecule, how does the EC50 read?
Answer: 509 nM

Question: `CC(C)OC(=O)N1CCC(ON=C2CCN(c3cc(F)c([S+](C)[O-])cc3F)CC2)CC1` (stereo not shown) [Example 43-1, 4-[1-(2,5-Difluoro-4-methanesulfinyl-phenyl)-piperidin-4-ylideneaminooxy]-piperidine-1-carboxylic acid isopropyl ester] was tested. Which EC50 did it give?
Answer: 58 nM

Question: With `CC(CO)CNC(=O)c1cc(F)c(N2CCC(=NOC3CCN(C(=O)OC(C)C)CC3)CC2)cc1F` (stereo not shown) [Example 2-77] as the molecule, how does the EC50 read?
Answer: 47 nM

Question: For `CC(C)OC(=O)N1CCC(ON=C2CCN(c3ncnc4ccsc34)CC2)CC1` [Example 2-15], which EC50 is on record?
Answer: 4780 nM

Question: For `COC(=O)CCNCc1cc(F)c(N2CCC(=NOC3CCN(C(=O)OC(C)C)CC3)CC2)cc1F` [Example 5-7], which EC50 is on record?
Answer: 1150 nM

Question: `Cc1cc(N2CCC(=NOC3CCN(C(=O)OC(C)C)CC3)CC2)c(F)cc1C(N)=O` [Example 2-76] was tested. Which EC50 did it give?
Answer: 534 nM

Question: Which EC50 does the source give for `CC(C)OC(=O)N1CCC(ON=C2CCN(c3ccccc3)CC2)CC1` [Example 32-1, 4-(1-Phenyl-piperidin-4-ylideneaminooxy)-piperidine-1-carboxylic acid isopropyl ester] here?
Answer: > 10000 nM

Question: How did the EC50 turn out when `CC(C)OC(=O)N1CCC(ON=C2CCN(c3cc(F)c(C=O)cc3F)CC2)CC1` [Example 2-3] was run?
Answer: 14 nM

Question: For `CC(C)OC(=O)N1CCC(ON=C2CCN(c3ccc4c(c3)CCC4=O)CC2)CC1` [Example 2-38], which EC50 is on record?
Answer: > 10000 nM

Question: How did the EC50 turn out when `CC(C)OC(=O)N1CCC(ON=C2CCN(c3ncc4c(n3)CCN(S(C)(=O)=O)C4)CC2)CC1` [Example 59b, 4-[1-(6-Methanesulfonyl-5,6,7,8-tetrahydro-pyrido[4,3-d]pyrimidin-2-yl)-piperidin-4-ylideneaminooxy]-piperidine-1-carboxylic acid isopropyl ester] was run?
Answer: 328 nM

Question: `CC(C)OC(=O)N1CCC(ON=C2CCN(c3nc(Cl)ncc3Cl)CC2)CC1` [Example 2-49] was tested. Which EC50 did it give?
Answer: 170 nM

Question: How did the EC50 turn out when `CC(C)OC(=O)N1CCC(ON=C2CCN(c3cc(F)c(CN4CCCC4)cc3F)CC2)CC1` [Example 5-1, 4-[1-(2,5-Difluoro-4-pyrrolidin-1-ylmethyl-phenyl)-piperidin-4-ylideneaminooxy]-piperidine-1-carboxylic acid isopropyl ester] was run?
Answer: 7830 nM

Question: `CC(C)OC(=O)N1CCC(ON=C2CCN(c3cc(F)c(C(C)O)cc3F)CC2)CC1` (stereo not shown) [Example 50-1, 4-{1-[2,5-Difluoro-4-(1-hydroxy-ethyl)-phenyl]-piperidin-4-ylideneaminooxy}-piperidine-1-carboxylic acid isopropyl ester] was tested. Which EC50 did it give?
Answer: 48 nM

Question: How did the EC50 turn out when `CC(C)OC(=O)N1CCC(ON=C2CCN(c3cc(F)c(C(N)=O)cc3F)CC2)CC1` [Example 2-32] was run?
Answer: 25 nM

Question: How did the EC50 turn out when `CC(C)OC(=O)N1CCC(ON=C2CCN(c3ncc(Br)cn3)CC2)CC1` [Example 2-17] was run?
Answer: 1180 nM

Question: `CC(C)OC(=O)N1CCC(ON=C2CCN(c3cc4[nH]cnc(=O)c4cc3F)CC2)CC1` [Example 2-61] was tested. Which EC50 did it give?
Answer: > 10000 nM

Question: For `CC(C)OC(=O)N1CCC(ON=C2CCN(c3c(Cl)cncc3Cl)CC2)CC1` [Example 2-39], which EC50 is on record?
Answer: 1680 nM

Question: How did the EC50 turn out when `COc1ccc(-c2cc(F)c(N3CCC(=NOC4CCN(C(=O)OC(C)C)CC4)CC3)cc2F)cn1` [Example 27-33] was run?
Answer: 891 nM

Same assay, conditions: the 15th table; read-out: EC50

Question: With `CC(C)OC(=O)N1CCC(ON=C2CCN(c3cc(F)c(C(=O)NCCCO)cc3F)CC2)CC1` [Example 29-9] as the molecule, how does the EC50 read?
Answer: 94 nM

Same assay, conditions: the 19th table; unit inferred; read-out: EC 50

Question: Which EC50 does the source give for `CCc1cnc(N2CCC(ON=C3CCN(c4cc(F)c(C(=O)N5CCC[C@H]5CN)cc4F)CC3)CC2)nc1` [Example 29-133] here?
Answer: 164 nM

Question: Which EC50 does the source give for `CCc1cnc(N2CCC(ON=C3CCN(c4cc(F)c(C(=O)N5CCC[C@H]5CNC)cc4F)CC3)CC2)nc1` [Example 29-134] here?
Answer: 437 nM

Question: Which EC50 does the source give for `CCc1cnc(N2CCC(ON=C3CCN(c4cc(F)c(C(=O)NCCC5CCNCC5)cc4F)CC3)CC2)nc1` [Example 29-112] here?
Answer: 38 nM

Same assay, conditions: the 32nd table; read-out: EC50

Question: For `Cc1ccnc(N2CCC(ON=C3CCN(c4ccc(S(C)(=O)=O)cc4F)CC3)CC2)n1` [Example 63-16], which EC50 is on record?
Answer: 765 nM

Question: Which EC50 does the source give for `CS(=O)(=O)c1ccc(N2CCC(=NOC3CCN(c4ncc(Br)cc4F)CC3)CC2)c(F)c1` [Example 63-25] here?
Answer: 195 nM

Same assay, conditions: the 33rd table; read-out: EC50

Question: For `CC(C)CCOC(=O)N1CCC(ON=C2CCN(c3ccc(S(C)(=O)=O)cc3F)CC2)CC1` [Example 64-40], which EC50 is on record?
Answer: 89 nM

Question: How did the EC50 turn out when `COC(=O)[C@@H](C)COC(=O)N1CCC(ON=C2CCN(c3ccc(S(C)(=O)=O)cc3F)CC2)CC1` [Example 64-24] was run?
Answer: 708 nM

Same assay, conditions: the 34th table, compounds 65-1 to 65-24; read-out: EC50

Question: With `CS(=O)(=O)c1ccc(N2CCC(=NOC3CCN(CC(=O)OCc4ccccc4)CC3)CC2)c(F)c1` [Example 65-5] as the molecule, how does the EC50 read?
Answer: 3380 nM

Question: Which EC50 does the source give for `CC(C)NC(=O)N1CCC(ON=C2CCN(c3ccc(S(C)(=O)=O)cc3F)CC2)CC1` [Example 65-8] here?
Answer: > 10000 nM

Same assay, conditions: the 36th table, compounds 66-1 to 66-51; read-out: EC50

Question: `CS(=O)(=O)c1ccc(N2CCC(=NOC3CCN(Cc4cscn4)CC3)CC2)c(F)c1` [Example 66-11] was tested. Which EC50 did it give?
Answer: > 10000 nM

Question: How did the EC50 turn out when `CS(=O)(=O)c1ccc(N2CCC(=NOC3CCN(Cc4ccc(C(F)(F)F)cc4)CC3)CC2)c(F)c1` [Example 66-31] was run?
Answer: 354 nM

Question: How did the EC50 turn out when `Cc1nc(CN2CCC(ON=C3CCN(c4ccc(S(C)(=O)=O)cc4F)CC3)CC2)c[nH]1` [Example 66-8] was run?
Answer: > 10000 nM

Same assay, conditions: the 37th table, compounds 66-52 to 66-64; read-out: EC50

Question: For `C/C=C/c1ccc(CN2CCC(ON=C3CCN(c4cc(F)c(S(C)(=O)=O)cc4F)CC3)CC2)cc1F` [Example 66-61], which EC50 is on record?
Answer: 49 nM

Question: With `CCCc1ccc(CN2CCC(ON=C3CCN(c4cc(F)c(S(C)(=O)=O)cc4F)CC3)CC2)cc1` [Example 66-53] as the molecule, how does the EC50 read?
Answer: 35 nM

Same assay, conditions: the 41st table, compounds 73-1, 73-2; unit inferred; read-out: EC50

Question: With `CS(=O)(=O)c1ccc(N2CCC(=NOC3CCN(C(=O)N4CCCCC4)CC3)CC2)c(F)c1` [Example 73-1, 1-(2-FLUORO-4-METHANESULFONYL-PHENYL)-PIPERIDIN-4-ONE O-[1-(PIPERIDINE-1-CARBONYL)-PIPERIDIN-4-YL]-OXIME] as the molecule, how does the EC50 read?
Answer: 425 nM

Same assay, conditions: the 43rd table, compounds 75-1 to 75-38; read-out: EC50

Question: How did the EC50 turn out when `CC(C)OC(=O)N1CCC(ON=C2CCN(c3cc(F)c(CC(=O)NCC4CCNC4)cc3F)CC2)CC1` (stereo not shown) [Example 75-27] was run?
Answer: 797 nM

Question: Which EC50 does the source give for `CC(C)OC(=O)N1CCC(ON=C2CCN(c3cc(F)c(CC(=O)N4CCC(N)CC4)cc3F)CC2)CC1` [Example 75-12] here?
Answer: 92 nM

Question: With `CC(C)OC(=O)N1CCC(ON=C2CCN(c3cc(F)c(CC(=O)NCC4CCCNC4)cc3F)CC2)CC1` (stereo not shown) [Example 75-23] as the molecule, how does the EC50 read?
Answer: 380 nM

Question: Which EC50 does the source give for `CC(C)OC(=O)N1CCC(ON=C2CCN(c3cc(F)c(CC(=O)N4CCC(CN5CCCC5)CC4)cc3F)CC2)CC1` [Example 75-34] here?
Answer: 146 nM

Same assay, conditions: the 44th table, compounds 77-1 to 77-14; read-out: EC50

Question: For `CCc1cnc(N2CCC(ON=C3CCN(c4cc(F)c(CC(=O)N5CC[C@H](CN)C5)cc4F)CC3)CC2)nc1` [Example 77-9], which EC50 is on record?
Answer: 8 nM

Question: For `CCc1cnc(N2CCC(ON=C3CCN(c4cc(F)c(CC(=O)N5CC[C@@H](N(C)C)C5)cc4F)CC3)CC2)nc1` [Example 77-6], which EC50 is on record?
Answer: 9 nM
